PMC9097471, “Development of Selective Phosphatidylinositol 5-Phosphate 4-Kinase γ Inhibitors with a Non-ATP-competitive, Allosteric Binding Mode” (Journal of Medicinal Chemistry, 2022)

Tests used:
PI5P4Kα = system: PI5P4Kα; set-up: method as in ref 30 (a number printed in a supplementary file, which may have a reference list of its own: not looked up in the article's list); conditions: 32P-ATP/PI5P incorporation; cited from earlier work
ABL = ABL (Homo sapiens, UniProt P00519); experiment: Kinase panel, radiometric 33P filter binding; assay type: biochemical
Source text: (§1) Kinase % activity remaining s.d.

CDK9-Cyclin T1 = CDK9-Cyclin T1 (Homo sapiens, UniProt P50750); experiment: Kinase panel, radiometric 33P filter binding; assay type: biochemical; conditions: CDK9-Cyclin T1, 10 μM
Source text: as §1

SmMLCK = SmMLCK (Homo sapiens, UniProt Q15746); experiment: Kinase panel, radiometric 33P filter binding; assay type: biochemical
Source text: as §1

Choline Kinase alpha = Choline Kinase alpha (Homo sapiens, UniProt P35790); experiment: Lipid kinase panel, ADP-Glo; assay type: biochemical
Source text: as §1
(§2) Choline Kinase alpha 101.6 3.2

Choline Kinase beta = Choline Kinase beta (Homo sapiens, UniProt Q9Y259); experiment: Lipid kinase panel, ADP-Glo; assay type: biochemical
Source text: as §1, §2

DGK beta = DGK beta (Homo sapiens, UniProt Q9Y6T7); experiment: Lipid kinase panel, ADP-Glo; assay type: biochemical
Source text: as §1, §2

DGK gamma = DGK gamma (Homo sapiens, UniProt P49619); experiment: Lipid kinase panel, ADP-Glo; assay type: biochemical
Source text: as §1, §2

DGK zeta = DGK zeta (Homo sapiens, UniProt Q13574); experiment: Lipid kinase panel, ADP-Glo; assay type: biochemical
Source text: as §1, §2

PI3K beta = PI3K beta (Homo sapiens, UniProt P42338); experiment: Lipid kinase panel, ADP-Glo; assay type: biochemical
Source text: as §1, §2

PI3K gamma = PI3K gamma (Homo sapiens, UniProt P48736); experiment: Lipid kinase panel, ADP-Glo; assay type: biochemical
Source text: as §1, §2

PI3KA E545K +P85 = PI3KA E545K +P85 (Homo sapiens, UniProt P42336, E545K); experiment: Lipid kinase panel, ADP-Glo; assay type: biochemical; conditions: PI3KA E545K +P85, 10 μM
Source text: as §1, §2

PI3Ka E524K +P85 = experiment: Lipid kinase panel, ADP-Glo; assay type: biochemical; conditions: PI3Ka E524K +P85, 10 μM
Source text: as §1, §2

PI3Kalpha = PI3Kalpha (Homo sapiens, UniProt P42336); experiment: Lipid kinase panel, ADP-Glo; assay type: biochemical
Source text: as §1, §2

PI4K2a = PI4K2a (Homo sapiens, UniProt Q9BTU6); experiment: Lipid kinase panel, ADP-Glo; assay type: biochemical
Source text: as §1, §2

PIK4Ca = PIK4Ca (Homo sapiens, UniProt P42356); experiment: Lipid kinase panel, ADP-Glo; assay type: biochemical
Source text: as §1, §2

PIP5K2a = PIP5K2a (Homo sapiens, UniProt P48426); experiment: Lipid kinase panel, ADP-Glo; assay type: biochemical
Source text: as §1, §2

SPHK1 = SPHK1 (Homo sapiens, UniProt Q9NYA1); experiment: Lipid kinase panel, ADP-Glo; assay type: biochemical; conditions: SPHK1, 10 μM
Source text: as §1, §2

SPHK2 = SPHK2 (Homo sapiens, UniProt Q9NRA0); experiment: Lipid kinase panel, ADP-Glo; assay type: biochemical; conditions: SPHK2, 10 μM
Source text: as §1, §2

MKK2 = MKK2 (Homo sapiens, UniProt P36507); experiment: Kinase panel, radiometric 33P filter binding; conditions: read-out: % activity remaining
MKK6 = MKK6 (Homo sapiens, UniProt P52564); experiment: Kinase panel, radiometric 33P filter binding; conditions: read-out: % activity remaining
ERK5 = ERK5 (Homo sapiens, UniProt Q13164); experiment: Kinase panel, radiometric 33P filter binding; conditions: read-out: % activity remaining
Source text: (§3) filter binding assay using 33P-g-ATPat the MRC PPU International Centre for Kinase Profiling, University of

p38a MAPK = p38a MAPK (Homo sapiens, UniProt Q16539); experiment: Kinase panel, radiometric 33P filter binding; conditions: read-out: % activity remaining
Source text: as §3

PKCa = PKCa (Homo sapiens, UniProt P17252); experiment: Kinase panel, radiometric 33P filter binding; conditions: read-out: % activity remaining
Source text: as §3

CAMKKb = CAMKKb (Homo sapiens, UniProt Q96RR4); experiment: Kinase panel, radiometric 33P filter binding; conditions: read-out: % activity remaining
Source text: as §3

CHK2 = CHK2 (Homo sapiens, UniProt O96017); experiment: Kinase panel, radiometric 33P filter binding; conditions: read-out: % activity remaining
Source text: as §3

PLK1 = PLK1 (Homo sapiens, UniProt P53350); experiment: Kinase panel, radiometric 33P filter binding; conditions: read-out: % activity remaining
Source text: as §3

MARK4 = MARK4 (Homo sapiens, UniProt Q96L34); experiment: Kinase panel, radiometric 33P filter binding; conditions: read-out: % activity remaining
Source text: as §3

TBK1 = TBK1 (Homo sapiens, UniProt Q9UHD2); experiment: Kinase panel, radiometric 33P filter binding; conditions: read-out: % activity remaining
Source text: as §3

MST3 = MST3 (Homo sapiens, UniProt Q9Y6E0); experiment: Kinase panel, radiometric 33P filter binding; conditions: read-out: % activity remaining
TAO1 = TAO1 (Homo sapiens, UniProt Q7L7X3); experiment: Kinase panel, radiometric 33P filter binding; conditions: read-out: % activity remaining
Source text: as §3

IRAK1 = IRAK1 (Homo sapiens, UniProt P51617); experiment: Kinase panel, radiometric 33P filter binding; conditions: read-out: % activity remaining
IRAK4 = IRAK4 (Homo sapiens, UniProt Q9NWZ3); experiment: Kinase panel, radiometric 33P filter binding; conditions: read-out: % activity remaining
Lck = Lck (Homo sapiens, UniProt P06239); experiment: Kinase panel, radiometric 33P filter binding; conditions: read-out: % activity remaining
BTK = BTK (Homo sapiens, UniProt Q06187); experiment: Kinase panel, radiometric 33P filter binding; conditions: read-out: % activity remaining
JAK3 = JAK3 (Homo sapiens, UniProt P52333); experiment: Kinase panel, radiometric 33P filter binding; conditions: read-out: % activity remaining
EPH-B2 = EPH-B2 (Homo sapiens, UniProt P29323); experiment: Kinase panel, radiometric 33P filter binding; conditions: read-out: % activity remaining
Source text: as §3

FGF-R1 = FGF-R1 (Homo sapiens, UniProt P11362); experiment: Kinase panel, radiometric 33P filter binding; conditions: read-out: % activity remaining
Source text: as §3

IGF-1R = IGF-1R (Homo sapiens, UniProt P08069); experiment: Kinase panel, radiometric 33P filter binding; conditions: read-out: % activity remaining
Sequence of IGF-1R (P08069 31-1367): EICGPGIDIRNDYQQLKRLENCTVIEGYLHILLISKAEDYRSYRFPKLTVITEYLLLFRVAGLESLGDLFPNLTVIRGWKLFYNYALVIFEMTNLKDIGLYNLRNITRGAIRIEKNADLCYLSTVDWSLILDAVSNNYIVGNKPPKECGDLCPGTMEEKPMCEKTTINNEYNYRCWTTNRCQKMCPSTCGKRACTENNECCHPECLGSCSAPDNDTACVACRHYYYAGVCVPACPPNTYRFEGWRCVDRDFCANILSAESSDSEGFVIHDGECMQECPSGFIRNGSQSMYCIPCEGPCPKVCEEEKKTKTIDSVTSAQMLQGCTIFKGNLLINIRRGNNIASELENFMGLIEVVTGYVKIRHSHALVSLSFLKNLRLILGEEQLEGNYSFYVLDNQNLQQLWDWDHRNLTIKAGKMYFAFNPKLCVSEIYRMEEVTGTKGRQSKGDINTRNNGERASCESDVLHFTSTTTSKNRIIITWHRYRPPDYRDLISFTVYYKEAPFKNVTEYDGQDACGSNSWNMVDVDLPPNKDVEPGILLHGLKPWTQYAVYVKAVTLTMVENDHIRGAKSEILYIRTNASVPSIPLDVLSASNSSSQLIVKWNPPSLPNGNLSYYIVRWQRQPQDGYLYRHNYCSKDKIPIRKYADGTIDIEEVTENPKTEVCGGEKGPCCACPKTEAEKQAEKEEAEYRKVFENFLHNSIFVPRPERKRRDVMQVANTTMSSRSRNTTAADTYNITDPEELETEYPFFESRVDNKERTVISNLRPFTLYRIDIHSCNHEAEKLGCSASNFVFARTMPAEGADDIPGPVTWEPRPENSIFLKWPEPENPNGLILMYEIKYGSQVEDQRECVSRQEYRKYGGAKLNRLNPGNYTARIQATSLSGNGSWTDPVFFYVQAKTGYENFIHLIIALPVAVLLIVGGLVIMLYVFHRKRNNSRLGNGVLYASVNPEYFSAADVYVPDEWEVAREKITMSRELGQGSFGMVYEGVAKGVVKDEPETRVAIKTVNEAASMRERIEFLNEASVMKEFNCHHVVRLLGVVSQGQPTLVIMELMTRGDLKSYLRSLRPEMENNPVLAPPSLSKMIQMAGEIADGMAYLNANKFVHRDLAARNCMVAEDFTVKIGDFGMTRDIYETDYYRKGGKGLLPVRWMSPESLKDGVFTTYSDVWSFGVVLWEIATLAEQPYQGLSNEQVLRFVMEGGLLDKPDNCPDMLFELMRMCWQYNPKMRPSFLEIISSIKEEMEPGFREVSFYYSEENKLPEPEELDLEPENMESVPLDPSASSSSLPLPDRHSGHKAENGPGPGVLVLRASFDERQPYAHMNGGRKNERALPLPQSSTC
Source text: as §3

Sequence of CDK9-Cyclin T1 (P50750 whole entry): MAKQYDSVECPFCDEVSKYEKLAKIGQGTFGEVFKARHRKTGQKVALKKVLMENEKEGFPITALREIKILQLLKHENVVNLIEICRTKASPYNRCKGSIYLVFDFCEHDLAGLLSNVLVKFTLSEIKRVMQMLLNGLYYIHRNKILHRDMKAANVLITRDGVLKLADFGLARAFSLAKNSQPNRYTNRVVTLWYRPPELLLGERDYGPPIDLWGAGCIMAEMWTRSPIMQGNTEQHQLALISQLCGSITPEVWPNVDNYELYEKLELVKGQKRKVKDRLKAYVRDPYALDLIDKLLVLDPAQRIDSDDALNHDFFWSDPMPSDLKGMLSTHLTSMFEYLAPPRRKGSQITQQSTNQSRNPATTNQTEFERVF
Sequence of CDK9-Cyclin T1 (O60563 whole entry partner): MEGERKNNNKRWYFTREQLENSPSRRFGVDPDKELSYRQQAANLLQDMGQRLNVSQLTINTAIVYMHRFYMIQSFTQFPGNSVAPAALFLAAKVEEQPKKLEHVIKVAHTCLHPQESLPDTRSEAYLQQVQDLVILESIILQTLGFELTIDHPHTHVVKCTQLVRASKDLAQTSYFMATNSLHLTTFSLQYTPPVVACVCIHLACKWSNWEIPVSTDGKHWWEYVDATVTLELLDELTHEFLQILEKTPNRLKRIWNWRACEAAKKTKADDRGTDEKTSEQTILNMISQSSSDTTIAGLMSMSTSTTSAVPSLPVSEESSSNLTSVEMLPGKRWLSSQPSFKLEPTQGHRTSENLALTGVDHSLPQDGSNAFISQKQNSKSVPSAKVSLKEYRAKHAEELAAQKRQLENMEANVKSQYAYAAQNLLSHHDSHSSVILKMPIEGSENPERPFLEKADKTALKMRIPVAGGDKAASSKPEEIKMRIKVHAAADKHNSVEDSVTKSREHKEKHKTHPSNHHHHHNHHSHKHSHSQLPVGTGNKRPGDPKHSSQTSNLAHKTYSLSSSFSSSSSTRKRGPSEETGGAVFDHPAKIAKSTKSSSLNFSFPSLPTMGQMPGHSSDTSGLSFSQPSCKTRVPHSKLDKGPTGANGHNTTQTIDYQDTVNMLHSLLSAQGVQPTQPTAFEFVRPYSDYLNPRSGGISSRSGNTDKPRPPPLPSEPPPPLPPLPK
Sequence of MARK4 (Q96L34 whole entry): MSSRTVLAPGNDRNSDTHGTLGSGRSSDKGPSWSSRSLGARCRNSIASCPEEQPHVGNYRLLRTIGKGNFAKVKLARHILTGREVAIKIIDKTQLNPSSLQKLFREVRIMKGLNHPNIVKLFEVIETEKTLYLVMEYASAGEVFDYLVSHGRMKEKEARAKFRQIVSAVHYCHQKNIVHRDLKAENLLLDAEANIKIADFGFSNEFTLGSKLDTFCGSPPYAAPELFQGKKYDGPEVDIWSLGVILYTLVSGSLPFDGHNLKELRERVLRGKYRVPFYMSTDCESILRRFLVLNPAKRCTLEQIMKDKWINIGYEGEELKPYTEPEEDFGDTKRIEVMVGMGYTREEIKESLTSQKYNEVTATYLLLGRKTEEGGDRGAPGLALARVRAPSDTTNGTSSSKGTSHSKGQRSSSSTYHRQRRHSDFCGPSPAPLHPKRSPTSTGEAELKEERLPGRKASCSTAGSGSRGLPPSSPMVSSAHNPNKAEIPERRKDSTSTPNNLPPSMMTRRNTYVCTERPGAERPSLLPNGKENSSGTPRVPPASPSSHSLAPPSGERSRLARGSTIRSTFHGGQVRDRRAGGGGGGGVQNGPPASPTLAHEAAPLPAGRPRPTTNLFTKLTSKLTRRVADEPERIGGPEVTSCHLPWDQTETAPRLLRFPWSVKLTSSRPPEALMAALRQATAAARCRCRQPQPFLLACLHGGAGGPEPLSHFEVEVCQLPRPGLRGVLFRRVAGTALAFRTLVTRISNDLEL
Sequence of p38a MAPK (Q16539 whole entry): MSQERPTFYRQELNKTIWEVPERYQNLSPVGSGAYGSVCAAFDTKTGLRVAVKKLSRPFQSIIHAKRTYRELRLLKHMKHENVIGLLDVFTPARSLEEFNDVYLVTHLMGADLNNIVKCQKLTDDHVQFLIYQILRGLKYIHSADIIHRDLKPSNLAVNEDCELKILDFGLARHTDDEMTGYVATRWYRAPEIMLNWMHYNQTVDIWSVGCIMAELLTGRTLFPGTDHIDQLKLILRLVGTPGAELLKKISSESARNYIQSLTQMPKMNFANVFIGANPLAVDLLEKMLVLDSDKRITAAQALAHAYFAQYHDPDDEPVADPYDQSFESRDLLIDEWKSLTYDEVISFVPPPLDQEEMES
Sequence of BTK (Q06187 whole entry): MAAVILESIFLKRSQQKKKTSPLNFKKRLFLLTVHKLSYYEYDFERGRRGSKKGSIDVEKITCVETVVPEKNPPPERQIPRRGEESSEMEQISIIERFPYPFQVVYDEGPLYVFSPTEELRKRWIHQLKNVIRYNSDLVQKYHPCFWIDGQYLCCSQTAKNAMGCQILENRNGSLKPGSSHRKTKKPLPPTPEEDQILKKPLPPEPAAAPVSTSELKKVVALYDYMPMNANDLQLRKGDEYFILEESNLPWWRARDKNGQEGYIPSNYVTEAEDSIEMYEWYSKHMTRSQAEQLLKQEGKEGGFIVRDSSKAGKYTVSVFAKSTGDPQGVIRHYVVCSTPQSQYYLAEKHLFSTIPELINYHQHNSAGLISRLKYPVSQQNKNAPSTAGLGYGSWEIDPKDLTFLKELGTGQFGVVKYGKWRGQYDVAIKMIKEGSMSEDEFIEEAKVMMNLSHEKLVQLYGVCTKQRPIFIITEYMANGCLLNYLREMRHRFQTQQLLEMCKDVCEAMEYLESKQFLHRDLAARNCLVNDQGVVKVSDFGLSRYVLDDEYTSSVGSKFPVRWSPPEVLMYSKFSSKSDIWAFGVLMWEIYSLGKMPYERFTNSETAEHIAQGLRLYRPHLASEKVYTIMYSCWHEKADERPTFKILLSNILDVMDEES
Sequence of MST3 (Q9Y6E0 whole entry): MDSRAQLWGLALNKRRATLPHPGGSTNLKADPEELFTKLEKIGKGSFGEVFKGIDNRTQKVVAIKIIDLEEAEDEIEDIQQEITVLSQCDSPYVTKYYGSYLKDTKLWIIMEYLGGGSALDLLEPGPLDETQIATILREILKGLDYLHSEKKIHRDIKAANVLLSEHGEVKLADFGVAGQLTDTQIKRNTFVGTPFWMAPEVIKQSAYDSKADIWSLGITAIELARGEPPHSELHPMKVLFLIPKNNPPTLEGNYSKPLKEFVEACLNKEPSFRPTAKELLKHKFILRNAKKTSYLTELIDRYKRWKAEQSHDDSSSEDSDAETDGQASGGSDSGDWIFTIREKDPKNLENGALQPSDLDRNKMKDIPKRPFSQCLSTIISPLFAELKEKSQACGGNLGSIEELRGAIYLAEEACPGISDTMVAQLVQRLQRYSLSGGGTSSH
Sequence of MKK6 (P52564 whole entry): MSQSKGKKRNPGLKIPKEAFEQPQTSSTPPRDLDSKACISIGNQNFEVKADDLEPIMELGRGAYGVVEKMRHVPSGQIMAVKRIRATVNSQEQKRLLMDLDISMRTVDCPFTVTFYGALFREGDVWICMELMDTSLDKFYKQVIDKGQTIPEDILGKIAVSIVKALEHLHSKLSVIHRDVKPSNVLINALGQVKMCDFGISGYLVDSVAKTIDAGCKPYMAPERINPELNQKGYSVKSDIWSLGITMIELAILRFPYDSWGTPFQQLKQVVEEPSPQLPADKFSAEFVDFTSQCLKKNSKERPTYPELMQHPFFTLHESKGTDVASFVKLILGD

For `FC(F)(F)c1ccccc1-c1nc(NCc2cccs2)c2ccccc2n1` [Compound 1, NIH-12848, reference compound], the IC50 (PI5P4Kα) is listed as > 100 µM.

`CC(C)c1ccccc1-c1nc(NCc2ccccn2)c2c(ccn2C)n1` [Compound 40] gave a remaining activity at 10 µM (ABL) of 108%, a remaining activity at 10 µM (CDK9-Cyclin T1) of 108% and a remaining activity at 10 µM (SmMLCK) of 108%. For the same molecule, the remaining activity at 10 µM (Choline Kinase alpha) was 102%, the remaining activity at 10 µM (Choline Kinase beta) was 97.3% and the remaining activity at 10 µM (DGK beta) was 102%. The remaining activity at 10 µM (DGK gamma) was 99.4%, the remaining activity at 10 µM (DGK zeta) was 106% and the remaining activity at 10 µM (PI3K beta) was 111%. For the same molecule, the remaining activity at 10 µM (PI3K gamma) was 103%, the remaining activity at 10 µM (PI3KA E545K +P85) was 91.7% and the “% activity remaining” value (PI3Ka E524K +P85) was 102.0%. For the same molecule, the remaining activity at 10 µM (PI3Kalpha) was 91.4%, the remaining activity at 10 µM (PI4K2a) was 93.5% and the remaining activity at 10 µM (PIK4Ca) was 81.1%. The remaining activity at 10 µM (PIP5K2a) was 100%, the remaining activity at 10 µM (SPHK1) was 91.8% and the remaining activity at 10 µM (SPHK2) was 83.8%. The remaining activity at 10 µM (MKK2) was 115%, the remaining activity at 10 µM (MKK6) was 90% and the remaining activity at 10 µM (ERK5) was 138%. It also gave a remaining activity at 10 µM (p38a MAPK) of 100%, a remaining activity at 10 µM (PKCa) of 118% and a remaining activity at 10 µM (CAMKKb) of 99%. The remaining activity at 10 µM (CHK2) was 110%, the remaining activity at 10 µM (PLK1) was 97% and the remaining activity at 10 µM (MARK4) was 105%. For the same molecule, the remaining activity at 10 µM (TBK1) was 93%, the remaining activity at 10 µM (MST3) was 110% and the remaining activity at 10 µM (TAO1) was 115%. The remaining activity at 10 µM (IRAK1) was 114%, the remaining activity at 10 µM (IRAK4) was 114% and the remaining activity at 10 µM (Lck) was 102%. It also gave a remaining activity at 10 µM (BTK) of 111%, a remaining activity at 10 µM (JAK3) of 97% and a remaining activity at 10 µM (EPH-B2) of 78%. It also gave a remaining activity at 10 µM (FGF-R1) of 92% and a remaining activity at 10 µM (IGF-1R) of 107%.
